# Columns and labels:
# MCF-7 = assay: MTT screening assay, MCF-7; assay type: cell-based; details: Homo sapiens, MCF7, 72 h incubation
# From the text: (§1) The ability of newly synthesized indole phytoalexins to suppress cell proliferation was screened in vitro on eight cancer cell lines including human colorectal carcinoma (Caco-2 and HCT116), human cervical cancer (HeLa), human breast adenocarcinoma (MCF-7, MDA-MB-231), human alveolar adenocarcinoma (A549) and human leukemic T cell lymphoma (Jurkat), and two non-cancer cell lines (MCF-10A, Cos-7).
# (§2) The cell lines used for this study were Caco-2 (human colorectal adenocarcinoma cell line, American Type Culture Collection, Manassas, VA, USA (ATCC)), HCT116 (human colorectal carcinoma cells European Collection of Authenticated Cell Cultures, Salisbury, UK (ECACC)), HeLa (human cervical tumor cells, ECACC), MCF-7 (human breast tumor cells, ECACC), MDA-MB-231 (human breast tumor cells, ATCC), A549 (human lung carcinoma cells, ATCC), BLM (human melanoma lung metastases, a gift from prof. K. Smetana, Institute of Anatomy, Charles University in Prague), Jurkat (human leukemia cell line, ECACC), Cos-7 (immortalized monkey kidney fibroblasts, ATCC) and MCF-10A (human mammary epithelial cells, ATCC). Caco-2, MCF-7, BLM, Cos-7 and A549 cells were cultured in Dulbecco’s Modified Eagle’s Medium (DMEM) with high glucose and sodium pyruvate (GE Healthcare, Piscataway, NJ, USA); HCT116 lines, HeLa, MDA-MB-231 and Jurkat were cultured in RPMI-1640 medium; and MCF10A cells were cultured in high glucose DMEM/F12 (Dulbecco’s Modified Eagle’s Medium F12). The media were enriched with 10% fetal bovine serum (FBS) and a 1% solution of a mixture of antibiotics and antimycotics 1× HyClone™ (GE Healthcare, Chicago, IL, USA). DMEM/F12 medium was supplemented with epidermal growth factor (EGF) (20 ng/mL final), hydrocortisone (0.5 μg/mL final) and insulin (10 μg/mL final) (Sigma-Aldrich Chemie, Steinheim, Germany). The cells were placed in an incubator at 37 °C with humidified air containing 5% CO2.
# (§3) The MTT assay is a colorimetric method used to quantify the metabolic activity of cells. MTT (3-(4,5-di-methylthiazol-2-yl)2,5-diphenyltetrazolium bromide) (Sigma-Aldrich Chemie, Steinheim, Germany) is reduced by oxidoreductases in the cytosol of cells to light-absorbing formazan, the presence of which can be measured spectrophotometrically and determines the half-maximal inhibitory concentration (IC50). A549 cells were seeded in 95-well culture plates at a density of 5 × 10^3 per well. […]
# (§4) We also incubated the cells with chloroquine at concentrations of 5–20 µM, which was added 1 h before the addition of the test substance, and cisplatin at concentrations of 3–10 µM. […] After 24 h, the absorbance was measured at a wavelength of 540 nm using an automated Cytation™ 3 Cell Imaging Multi-Mode Reader (Biotek, Winooski, VT, USA). […]
# glutathione (GSH) = assay: GSH content in treated A549 cells; assay type: cell-based, human; details: A549, 20 µM
# From the text: Glutathione is an important intracellular molecule involved in carcinogen detoxification. On the other hand, its elevated state in cancer cells is often associated with resistance to chemotherapy. […] Because high levels of GSH are associated with cancer cell resistance, the GHS-depleting effect of compound 49 could be interesting due to new cancer chemosensitizer development. In the case of GST and GR, we hypothesize that an increase in the activity of both enzymes may be a compensatory mechanism induced by GSH depletion.
# Both floating and adherent A549 cells were harvested at 24, 48, and 72 h after treatment with compound 49 (20 µM). SOD determination kit, Glutathione Peroxidase Cellular Activity Assay kit, Glutathione Reductase Assay Kit and Glutathione-S-transferase (GST) Assay Kit (all Sigma Aldrich, Germany) were used for the detection of relevant enzyme activity. Reduced glutathione (GSH) content was measured by the method originally described by Floreani et al.. Assays were performed on an M 501 single beam UV/VIS spectrophotometer (Spectronic Camspec Ltd., Leeds, United Kingdom). All measured parameters were calculated per milligram or gram of protein determined using the bicinchoninic acid assay.
# HeLa = assay: MTT screening assay, HeLa; assay type: cell-based; details: Homo sapiens, 72 h incubation
# From the text: as §1, §2, §3, §4
# Caco-2 = assay: MTT screening assay, Caco-2; assay type: cell-based; details: Homo sapiens, 72 h incubation
# From the text: as §1, §2, §3, §4
# BLM = assay: MTT screening assay, BLM; assay type: cell-based; details: Homo sapiens, 72 h incubation
# MCF10A = assay: MTT screening assay, MCF10A non-cancer cells; assay type: cell-based, human
# From the text: as §1, §2
# The MTT assay is a colorimetric method used to quantify the metabolic activity of cells. MTT (3-(4,5-di-methylthiazol-2-yl)2,5-diphenyltetrazolium bromide) (Sigma-Aldrich Chemie, Steinheim, Germany) is reduced by oxidoreductases in the cytosol of cells to light-absorbing formazan, the presence of which can be measured spectrophotometrically and determines the half-maximal inhibitory concentration (IC50). A549 cells were seeded in […] culture plates at a density of 5 × 10^3 per well. After 24 h of cultivation, the tested substance 49 was added in concentrations of 10, 50 and 100 µM.
# (§5) We also incubated the cells with chloroquine at concentrations of 5–20 µM, which was added 1 h before the addition of the test substance, and cisplatin at concentrations of 3–10 µM. Cisplatin was added 24 h after the addition of 49. After 72 h of incubation, 10 µL of MTT (5 mg/mL) was added to each well. After 4 h, formazan crystals formed in the wells, which were dissolved in 100 uL of 10% SDS (sodium dodecyl sulfate). After 24 h, the absorbance was measured at a wavelength of 540 nm using an automated Cytation™ 3 Cell Imaging Multi-Mode Reader (Biotek, Winooski, VT, USA). These experiments were performed in three independent replicates.
# [1] = tested on: A549 human lung cancer cells; assay: MTT assay with cis-platin alone or combined with compound 49; assay type: cell-based; details: A549, CisPt 10 μM + compound 49 20 μM
# From the text: Furthermore, the depletion of GSH has been documented to potentiate the effect of anticancer drugs. Glutathione plays an important role in cisPt detoxification, so depletion of GSH is believed to potentiate the cisPt-induced DNA damage and increase the chemosensitivity of cancer cells to this anticancer drug. Due to the GSH-depleting effect of compound 49, we performed a set of experiments with cis-platin (CisPt) alone or in combination with compound 49 (Figure 9). […] Simultaneous treatments with CisPt (10 μM) and 20 μM of compound 49 caused a 59% reduction in cell growth.
# as §3, with “(IC50).” for “(IC50). A549 cells were seeded in 95-well culture plates at a density of 5 × 10^3 per well.”
# as §4
# A549 cells = assay: MTT assay with chloroquine combination; assay type: cell-based, human; details: 49 20 μM + CQ 5, 10 and 20 μM, 72 h
# Experimental: as §3, §5
# HCT116 = assay: MTT screening assay, HCT116; assay type: cell-based; details: Homo sapiens, HCT-116, 72 h incubation
# From the text: as §1, §2, §3, §4
compound,measurement,setting,value
"CC(C)(C)OC(=O)n1cc(CNC(=O)Nc2ccc(NC(=O)NCc3cn(C(=O)OC(C)(C)C)c4ccccc34)cc2)c2ccccc21 [Compound 49, N,N′-(1,4-phenylene)bis{N′-[1-(tert-butoxycarbonyl)indol-3-yl]methyl (urea)}]",IC50,MCF-7,> 100 µM
same,GSH,glutathione (GSH); 24 h,0.395 ± 0.043 nmol/mg Prot
same,GSH,glutathione (GSH); 48 h,0.107 ± 0.015 nmol/mg Prot
same,GSH,glutathione (GSH); 72 h,0.228 ± 0.062 nmol/mg Prot
same,IC50,HeLa,8.9 ± 0.2 µM
same,IC50,Caco-2,8.6 ± 0.9 µM
same,IC50,BLM,> 100 µM
same,IC50,"MCF10A; Homo sapiens, MCF-10A, 72 h incubation, MTT, non-cancer cells",55.1 ± 4.1 µM
same,Selectivity index—A549 cells vs. non-cancer cells (MCF10A),MCF10A; IC50 MCF10A / IC50 A549,6.3
same,"reduction in cell growth, combination",[1],59%
same,effect of chloroquine co-treatment on the antiproliferative effect of compound 49 (A549 cell survival),A549 cells,significantly potentiated
same,IC50,HCT116,8.8 ± 0.6 µM

# From paper PMC9822133, “Design, Synthesis and Antiproliferative Evaluation of Bis-Indole Derivatives with a Phenyl Linker: Focus on Autophagy” (Molecules, 2022)
